Where a name gives a salt, the structure may show the parent alone. Read-outs that look alike come from different tables or passages of the source.
Key:
PPARg = experiment: PPARgamma Transient Cotransfection Assay; type: cell-based; conditions: CAT reporter; for EC50: read-out: PPARg EC50
hPPARgamma = target: T1, hPPARgamma (Homo sapiens, UniProt P37231); experiment: hPPARgamma Ligand Binding Assay; conditions: competition with [3H]-BRL 49,653, room temperature 2 hrs
T1 construct: 10x-histidine tag (N); made in house; host or cells: E. coli
T1 sequence (P37231 195-475 isoform P37231-2): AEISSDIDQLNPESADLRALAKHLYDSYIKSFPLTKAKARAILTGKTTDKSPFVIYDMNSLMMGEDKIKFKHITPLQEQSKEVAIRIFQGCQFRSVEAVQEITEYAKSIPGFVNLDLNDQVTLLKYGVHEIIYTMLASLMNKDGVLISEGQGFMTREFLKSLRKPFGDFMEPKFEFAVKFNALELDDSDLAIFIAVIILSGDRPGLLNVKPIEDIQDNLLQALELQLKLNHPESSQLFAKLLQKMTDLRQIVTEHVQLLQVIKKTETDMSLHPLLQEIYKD
Method: 2. hPPARgamma Ligand Binding Assay: The PPAR-gamma ligand binding domain (amino acids 195-475) was expressed with an N-terminal 10×-histidinetag in E. coli cells. The cells were lysed and receptor was purified by means of the epitope tag. The stock solution of protein was diluted to 200 nM in assay buffer (50 mM Tris, 50 mM KCl, pH 8 20 mM CHAPS, 2 mM EDTA 10 mM DTT (Fresh)) just before use.
Test compounds were prepared as 6 mM stock solutions in DMSO. […] The right-most column of wells was used for controls. […] Plates were incubated at room temperature for 2 hrs, and then cooled on ice for 30 minutes. 50 uL samples from each well of a single test plate were simultaneously loaded onto an equilibrated AGTC 96 well gel filtration block (Advanced Genetics Technology Corp.) using a Zymak Rapidplate automated pipettor. The block was placed on top of a clean microtiter plate and centrifuged @1,100×g for 4 min. 200 uL of scintillation fluid was added to each well, the plates were sealed and allowed to equilibrate for at least 4 hours before counting in a Wallac 1250 Microbeta counter.
Ki's were determined from a nonlinear least squares fit of the data to a simple competitive binding model.

| Compound | EC50 (PPARg) | Ki (hPPARgamma; PPARg Ki) | PPARg Fold. Act. (PPARg) | Ki (hPPARgamma; read-out: PPARg Ki) |
| --- | --- | --- | --- | --- |
| O=C(c1ccccc1)c1ccccc1NC(Cc1ccc(OC2CCN(c3nc4ccccc4o3)C2)cc1)C(=O)O (stereo not shown) [Example 21, 3-[4-(1-Benzoxazol-2-yl-pyrrolidin-3-yloxy)-phenyl]-2-(2-benzoyl-phenylamino)-propionic acid] | 150 nM | 530 nM |  |  |
| CCOC(=O)C(Cc1ccc(OCCN(C)c2ccccn2)cc1)Nc1ccccc1C(=O)c1ccccc1 (stereo not shown) [Example 13, 2-(2-Benzoyl-phenylamino)-3-{4-[2-(methyl-pyridin-2-yl-amino)-ethoxy]-phenyl}-propionic acid ethyl ester] | 60 nM | 1300 nM |  |  |
| CN(CCOc1ccc(CC(Nc2ccccc2C(=O)c2cccc(C(F)(F)F)c2)C(=O)O)cc1)c1nc2ccccc2o1 (stereo not shown) [Example 76] | 10 nM | 110 nM |  |  |
| Cc1oc(-c2ccccc2)nc1CCOc1ccc(C[C@H](Nc2ccccc2C(=O)c2cccnc2)C(=O)O)cc1 [Example 58, 3-{4-[2-(5-Methyl-2-phenyl-oxazol-4-yl)-ethoxy]-phenyl}-2(S)-[2-(pyridine-3-carbonyl)-phenylamino]-propionic acid] | 1 nM | 30 nM |  |  |
| COC(=O)c1ccccc1N[C@@H](Cc1ccc(OCCc2ccc(OC(F)(F)F)cc2)cc1)C(=O)O [Example 107, 2(S)-(1-carboxy-2-{4-[2-(4-trifluoromethoxy-phenyl)-ethoxy]-phenyl}-ethylamino)-benzoic acid methyl ester] | 190 nM | 40 nM |  |  |
| O=C(c1ccccc1)c1ccccc1NC(Cc1ccc(OCc2ccccc2)cc1)C(=O)O (stereo not shown) [Example 4, 2-(2-benzoylphenylamino)-3-(4-benzyloxyphenyl) propanoic acid] | 3000 nM | 1000 nM | 20 |  |
| O=C(c1ccccc1)c1ccccc1NC(Cc1ccc(OCCn2cnc3ccccc32)cc1)C(=O)O (stereo not shown) [Example 31, 3-[4-(2-Benzoimidazol-1-yl-ethoxy)-phenyl]-2-(2-benzoyl-phenylamino)-propionic acid] | 450 nM | 145 nM |  |  |
| CN(CCOc1ccc(CC(Cc2ccccc2)C(=O)O)cc1)c1nc2ccccc2o1 (stereo not shown) [Example 26, 3-{4-[2-(Benzoxazol-2-yl-methyl-amino)-ethoxy]-phenyl}-2-benzyl-propionic acid trifluoroacetate] | 670 nM | 1900 nM |  |  |
| O=C(c1ccccc1)c1ccccc1N[C@@H](Cc1ccc(OC[C@@H]2CCCN2c2ccccn2)cc1)C(=O)O [Example 61, 2S-(2-benzoyl-phenylamino)-3-[4-(1-pyridin-2-yl-pyrrolidin-2S-yl-methoxy)-phenyl]-propionic acid] | 15 nM | 10 nM |  |  |
| O=C(c1ccccc1)c1ccccc1NC(Cc1ccc(OCc2csc(-c3ccc(Cl)cc3)n2)cc1)C(=O)O (stereo not shown) [Example 30, 2-(2-Benzoyl-phenylamino)-3-{4-[2-(4-chlorophenyl)-thiazol-4ylmethoxy]-phenyl}-propionic acid] | 50 nM | 300 nM |  |  |
| Cc1cc(-c2ccco2)nn1CCOc1ccc(C[C@H](Nc2ccccc2C(=O)c2ccccc2)C(=O)O)cc1 [Example 63, 2S-(2-benzoyl-phenylamino)-3-{4-[2-(3-furan-2-yl-5-methyl-pyrazol-1-yl)-ethoxy]-phenyl}-propionic acid] | 20 nM | 30 nM |  |  |
| CN(CCOc1ccc(CC(Nc2ccccc2C(=O)c2ccc(C(F)(F)F)cc2)C(=O)O)cc1)c1nc2ccccc2o1 (stereo not shown) [Example 73] | 25 nM | 115 nM |  |  |
| CN(CCOc1ccc(CC(Nc2ccc(Cl)cc2C(=O)c2ccccc2)C(=O)O)cc1)c1nc2ccccc2o1 (stereo not shown) [Example 20, 3-{4-[2-(benzoxazol-2-yl-methyl-amino)-ethoxy]-phenyl}-2-(2-benzoyl-4-chloro-phenylamino)-propionic acid] | 120 nM | 180 nM |  |  |
| CN(CCOc1ccc(CC(Nc2ccccc2C(=O)c2cccc(O)c2)C(=O)O)cc1)c1nc2ccccc2o1 (stereo not shown) [Example 92, 3-{4-[2-(benzoxazol-2-yl-methyl-amino)-ethoxy]-phenyl}-2-[2-(3-hydroxy-benzoyl)-phenylamino]-propionic acid] | 400 nM | 20 nM |  |  |
| COc1ccc(C(=O)c2ccccc2NC(Cc2ccc(OCCN(C)c3nc4ccccc4o3)cc2)C(=O)O)cc1 (stereo not shown) [Example 110, 3-{4-[2-(Benzoxazol-2-yl-methylamino)-ethoxy]-phenyl}-2-(2-(4-methoxy-benzoyl)-phenylamino)-propionic acid] | 65 nM | 50 nM |  |  |
| Cc1oc(-c2ccccc2)nc1CCOc1ccc(CC(Nc2ccccc2C(=O)C2CCCCC2)C(=O)O)cc1 (single isomer, unassigned) [Example 53, 2-(2-Cyclohexanecarbonyl-phenylamino)-3-{4-[2-(5-methyl-2-phenyl-oxazol-4-yl)-ethoxy]-phenyl}-propionic acid] | 25 nM | 70 nM |  |  |
| CN(CCOc1ccc(CC(Nc2ccccc2C(=O)C2CCCC2)C(=O)O)cc1)c1nc2ccccc2o1 (stereo not shown) [Example 48, 3-{4-[2-(Benzoxazol-2-yl-methyl-amino)-ethoxy]-phenyl}-2-(2-cyclopentanecarbonyl-phenylamino)-propionic acid] | 20 nM | 115 nM |  |  |
| CC(=CC(=O)c1ccccc1)N[C@@H](Cc1ccc(OCc2ccccc2)cc1)C(=O)O [Example 1, 3-(4-Benzyloxy-phenyl)-2(S)-(1-methyl-3-oxo-3-phenyl-propenylamino)-propionic acid dicyclohexylamine salt] | 60 nM | 55 nM | 26 |  |
| 3-{4-[2-(Benzoxazol-2-yl-methylamino)-ethoxy]-phenyl}-3-(4-benzoyl-thienylamino)-propionic acid [Example 108] | 20 nM |  |  | 80 nM |
| CN(CCOc1ccc(CC(Nc2ccccc2C(=O)c2ccsc2)C(=O)O)cc1)c1nc2ccccc2o1 (stereo not shown) [Example 75] | 100 nM | 75 nM |  |  |
| Cc1cccc(C)c1C(=O)c1ccccc1NC(Cc1ccc(OCCN(C)c2nc3ccccc3o2)cc1)C(=O)O (stereo not shown) [Example 83] | 165 nM | 350 nM |  |  |
| Cc1oc(-c2ccccc2)nc1CCOc1ccc(C[C@H](Nc2ccccc2C(=O)c2cc[n+]([O-])cc2)C(=O)O)cc1 [Example 57, 3-{4-[2-(5-methyl-2-phenyl-oxazol-4-yl)-ethoxy]-phenyl}-2(S)-[2-(pyridineN-oxide-4-carbonyl)-phenylamino]-propionic acid] | 150 nM | 1240 nM |  |  |
| O=C(c1ccccc1)c1ccccc1N[C@@H](Cc1ccc(OC[C@@H]2CSCN2c2nc3ccccc3o2)cc1)C(=O)O [Example 72, 3-[4-(3-Benzoxazol-2-yl-thiazolidin-4(R)-ylmethoxy)-phenyl]-2(S)-(2-benzoyl-phenylamino)-propionic acid] | 5 nM | 30 nM |  |  |
| Cc1oc(-c2ccccc2)nc1CCOc1ccc(CC(Nc2ccccc2C(=O)c2ccc(CN(C)C)cc2)C(=O)O)cc1 (stereo not shown) [Example 81, 2-[2-(4-dimethylaminomethyl-benzoyl)-phenylamino]-3-{4-[2-(5-methyl-2-phenyl-oxazol-4-yl)-ethoxy]-phenyl}-propionic acid hydrochloride] | 400 nM | 130 nM |  |  |
| COC(=O)c1ccccc1N[C@@H](Cc1ccc(OCCc2ccc(N(C)C)cc2)cc1)C(=O)O [Example 104, 2(S)-(1-carboxy-2-{4-[2-(4-dimethylamino-phenyl)-ethoxy]-phenyl}-ethylamino)-benzoic acid methyl ester] | 900 nM | 3000 nM |  |  |

From patent US6294580A, “Substituted 4-hydroxy-phenylalcanoic acid derivatives with agonist activity to PPAR-gamma” (Glaxo Wellcome Inc., priority 1996, dated 2001)
